{
  "source": "paper PMC9886266",
  "about": "“New [1,2,4]triazolo[4,3-c]quinazolines as intercalative Topo II inhibitors: Design, synthesis, biological evaluation, and in silico studies” (PLOS ONE, 2023)",
  "key": {"[1]": {"tested_on": "HCT-116 cell line", "assay": "MTT anti-proliferative assay, HCT-116", "type": "cell-based", "conditions": "Homo sapiens, 48 h, three independent experiments, read-out: In vitro cytotoxicity IC50, HCT-116", "protocol": "In vitro antiproliferative activities of the target molecules were assessed against two human cancer cell lines namely, hepatocellular carcinoma (HepG2) and colorectal carcinoma (HCT-116) using MTT assay.\nThe anti-proliferative activity of the synthesized compounds was assessed using MTT assay protocol. A panel of human cancer cell lines namely, colorectal carcinoma (HCT-116) and hepatocellular carcinoma (HepG2) was used in this test. Doxorubicin was used as a positive control. The cell lines were got from ATCC (American Type Culture Collection) via the Holding company for biological products and vaccines (VACSERA, Cairo, Egypt). The anti-proliferative activities of the tested compounds were determined quantitatively as follows:\nAt first, the cells were cultured into a medium of RPMI-1640 with 10% fetal bovine serum. Then, two different antibiotics were added at 37°C in a 5% CO2 incubator: penicillin (100 units/mL) and streptomycin (100 μg/mL). Next, we seeded the cells in a 96-well plate by a density of 1.0 x 10^4 cells / well at 37°C for 48 h under 5% CO2. The synthesized compounds with different concentrations were applied into the cell lines and incubated for 48 h. After 48 h, 20 μl of MTT solution (5mg/mL) was added and incubated for 4 h. Then, DMSO (100 μl) was added into each well to dissolve the formed purple formazan. After that, a colorimetric assay was measured and recorded at absorbance of 570 nm using a plate reader (EXL 800, USA). The relative cell viability in percentage was calculated as (A570 of treated samples/A570 of untreated sample) X 100.\nS2: Biological evaluation\nS2.1. In vitro cytotoxic activity\nThe anti-proliferative activity of the synthesized compounds was assessed using MTT assay protocol. A panel of human cancer cell lines namely, colorectal carcinoma (HCT-116) and hepatocellular carcinoma (HepG2) was used in this test. As we targeted the DNA and Topo […]\ncell lines were got from ATCC (American Type Culture Collection) via the Holding company for biological products and vaccines (VACSERA, Cairo, Egypt). The anti -proliferative activities of the tested compounds were determined quantitatively as follows:\nAt first, the cells were cultured into a medium of RPMI-1640 with 10% fetal bovine serum.\nThen, two different antibiotics were added at 37 ᵒC in a 5% CO2 incubator: penicillin (100 units/mL) and streptomycin (100 µg/mL). Next, we seeded the cells in a 96 -well plate by a density of 1.0 x 10^4 cells / well at 37 ᵒC for 48 h under 5% CO2. The synthesized compounds with different concentrations were applied into the cell lines and incubated for 48 h. After 48 h, 20 µl of MTT solution (5mg/mL) was added and incubated for 4 h. Then, DMSO (100 µl) was added into each well to dissolve the formed purple formazan. After that, a colorimetric assay was measured and recorded at absorbance of 570 nm using a plate reader (EXL 800, USA). The relative cell viability in percentage was calculated as (A570 of treated samples/A570 of untreated sample) X 100. […]"}, "[2]": {"tested_on": "Vero cells", "assay": "In vitro cytotoxicity against normal cell line", "type": "cell-based", "excerpt": "Although Vero cell are not human cell, it was reported that Vero cells can be used as normal cells to validate the toxicity of the synthesized compounds [43]."}, "[3]": {"molecular_target": "Topo II α and supercoiled pBR322 DNA (Homo sapiens, UniProt P11388)", "sequence (P11388 whole entry)": "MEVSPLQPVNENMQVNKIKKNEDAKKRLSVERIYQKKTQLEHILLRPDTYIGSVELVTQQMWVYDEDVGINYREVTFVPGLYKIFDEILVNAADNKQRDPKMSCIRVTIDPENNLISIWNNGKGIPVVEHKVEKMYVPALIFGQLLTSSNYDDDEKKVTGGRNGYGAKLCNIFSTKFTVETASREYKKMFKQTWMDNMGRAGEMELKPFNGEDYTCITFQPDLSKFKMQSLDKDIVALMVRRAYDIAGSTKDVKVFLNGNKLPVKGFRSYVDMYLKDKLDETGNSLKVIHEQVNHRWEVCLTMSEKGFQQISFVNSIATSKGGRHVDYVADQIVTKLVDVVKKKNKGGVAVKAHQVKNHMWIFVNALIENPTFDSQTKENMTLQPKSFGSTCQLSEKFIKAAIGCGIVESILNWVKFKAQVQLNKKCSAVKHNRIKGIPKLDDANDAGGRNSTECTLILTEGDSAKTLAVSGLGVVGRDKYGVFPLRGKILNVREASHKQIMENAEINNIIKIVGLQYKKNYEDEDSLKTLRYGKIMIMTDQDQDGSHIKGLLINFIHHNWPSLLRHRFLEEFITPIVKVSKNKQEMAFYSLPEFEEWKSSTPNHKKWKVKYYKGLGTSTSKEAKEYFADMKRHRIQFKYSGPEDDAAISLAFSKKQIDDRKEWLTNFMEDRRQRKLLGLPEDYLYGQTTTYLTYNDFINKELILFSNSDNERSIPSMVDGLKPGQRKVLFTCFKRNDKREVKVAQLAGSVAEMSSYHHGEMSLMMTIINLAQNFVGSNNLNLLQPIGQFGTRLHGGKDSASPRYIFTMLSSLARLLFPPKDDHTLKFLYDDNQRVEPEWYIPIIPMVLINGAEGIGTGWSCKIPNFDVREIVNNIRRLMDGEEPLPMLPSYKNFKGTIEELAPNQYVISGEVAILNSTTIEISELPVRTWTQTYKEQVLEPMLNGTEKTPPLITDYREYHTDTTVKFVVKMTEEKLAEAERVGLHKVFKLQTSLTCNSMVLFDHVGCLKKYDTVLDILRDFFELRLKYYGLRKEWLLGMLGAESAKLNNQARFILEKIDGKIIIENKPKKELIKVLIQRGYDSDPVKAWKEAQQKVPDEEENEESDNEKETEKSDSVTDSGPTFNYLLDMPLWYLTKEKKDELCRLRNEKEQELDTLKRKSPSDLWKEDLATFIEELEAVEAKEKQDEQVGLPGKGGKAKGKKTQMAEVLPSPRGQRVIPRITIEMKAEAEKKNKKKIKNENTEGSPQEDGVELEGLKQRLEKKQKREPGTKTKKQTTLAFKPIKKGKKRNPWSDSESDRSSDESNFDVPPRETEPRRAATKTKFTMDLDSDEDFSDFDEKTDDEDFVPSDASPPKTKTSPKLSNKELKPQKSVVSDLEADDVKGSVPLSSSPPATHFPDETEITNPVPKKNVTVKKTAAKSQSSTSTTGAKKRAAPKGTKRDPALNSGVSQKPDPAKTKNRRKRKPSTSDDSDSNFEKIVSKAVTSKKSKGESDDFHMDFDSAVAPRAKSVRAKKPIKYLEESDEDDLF", "assay": "Topo II-mediated DNA cleavage assay", "type": "biochemical", "protocol": "The Topo II inhibitors may act through two pathways. Firstly, it can stabilize the Topo II-DNA covalent complexes leading to the formation of linear DNA (Topo II poisons). Secondly, it can block the catalytic site of Topo II (Topo II catalytic inhibitors).\nTopo II-mediated DNA cleavage assay was carried out according the reported method by Huang et al. as follows.\nTopo II α (10 U), supercoiled pBR322 DNA (0.2 μg) and compound 16 at concentration of 5 and 10 μM were added in Topo II buffer ([…], pH 8.0, 150 mM NaCl, 10 mM MgCl2 2mM ATP, 0.5mM dithiothreitol, and 30 μg/mL BSA) of 20 μL volume. After incubating for 6 min at 37°C and then respectively adding 2 μL of 10% SDS, 2 μL of 250mM NaEDTA, pH 8.0, 2 μL of 0.8 mg/mL Proteinase K. Following reactions were incubated for another 30 min at 45°C. Samples were mixed with 4 μL of 6×loading buffer, heated at 70°C for 2 min and subjected to electrophoresis in a 1% agarose gel in 1×TAE buffer (30 mL) with 1 μL Gel Red. Finally, DNA bands were visualized by using UV light, photographed by using Alpha Innotech digital imaging system.\nAfter that, the DNA was run on 1% agarose gel in BioRad gel electrophoresis system for 1–2 h followed by staining with GelRedTM stain for 2 h and destained for 15 min with TAE buffer. The gel was imaged via BioRad’s Gel DocTMEZ system. Both supercoiled and linear strands DNA were incorporated in the gel as markers for DNA-Topo II intercalators. The results of IC50 values were calculated using the GraphPad Prism version 7. Each reaction was performed in duplicate, and at least three independent determinations of each IC50 were made.\nS2.3. DNA/Methyl Green Assay […]\nmethyl green dye method described by Burres et al. Activated Calf Thymus DNA (Merk, Germany) was treated with methyl green (Merk, Germany), then the synthesized compounds were applied to displace the methyl green dye, producing equivalent color. The results were reported […]\nS2.4. Topo II-mediated DNA cleavage assay […]"}},
  "data": [
    {"smiles": "CCCNc1nc2ccccc2c2nnc(C(F)(F)F)n12", "note": "[Compound 16, N-Propyl-3-(trifluoromethyl)-[1,2,4]triazolo[4,3-c]quinazolin-5-amine]", "values": [
      {"measurement": "IC50", "setting": "[1]", "value": "2440 ± 100", "unit": "nM"},
      {"measurement": "IC50", "setting": "[2]; Chlorocebus sabaeus, Vero", "value": 63.4, "unit": "µM"},
      {"measurement": "Selectivity: activity against HCT-116 compared with normal Vero cells", "setting": "[2]; Vero vs HCT-116", "value": 26, "unit": "fold"},
      {"measurement": "Selectivity: activity against HepG2 compared with normal Vero cells", "setting": "[2]; Vero vs HepG2", "value": 10, "unit": "fold"},
      {"measurement": "Toxicity to Vero cells less than that of sorafenib", "setting": "[2]; compared with sorafenib", "value": "about 2.5 fold"},
      {"measurement": "Effect on relaxation of supercoiled DNA by Topo II", "setting": "[3]; 5 μM", "value": "induced relaxation for the DNA"},
      {"measurement": "Effect on relaxation of supercoiled DNA by Topo II", "setting": "[3]; 10 μM", "value": "blocked the formation of relaxed DNA"},
      {"measurement": "Formation of linear DNA", "setting": "[3]; all concentrations (5 and 10 μM)", "value": "the linear DNA was not formed"}
    ]}
  ]
}
